Legend:
Experiment in all cases: relative viability (nuclei count vs DMSO), 5 days (fraction); higher = more cells survive
Sunitinib + Luminespib = compound: CCN(CC)CCNC(=O)c1c(C)[nH]c(/C=C2\C(=O)Nc3ccc(F)cc32)c1C [Sunitinib] + CCNC(=O)c1noc(-c2cc(C(C)C)c(O)cc2O)c1-c1ccc(CN2CCOCC2)cc1 [Luminespib] (partner 0.01 µM)
Outline: (§1)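 Nuclei were stained with Hoechst during a one-step fixation (final 0.05% Triton X-100, 1% formaldehyde, 1 ug/ml Hoechst) carried out 5 days after dosing, then counted on 4× images. The cells, lung cancer lines in 1536-well plates, had been dosed by pin tool the day after seeding with one drug alone or a fixed anchor-drug dose plus five library-drug doses (not always all listed) in √10 steps. Relative viability is the nuclei count in treated wells divided by that in vehicle wells, and each value is the median of duplicate plates.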

Sunitinib + Foretinib = compound: CCN(CC)CCNC(=O)c1c(C)[nH]c(/C=C2\C(=O)Nc3ccc(F)cc32)c1C [Sunitinib] + COc1cc2c(Oc3ccc(NC(=O)C4(C(=O)Nc5ccc(F)cc5)CC4)cc3F)ccnc2cc1OCCCN1CCOCC1 [Foretinib] (partner 0.25 µM)
Outline: as §1

Sunitinib + Linsitinib = compound: CCN(CC)CCNC(=O)c1c(C)[nH]c(/C=C2\C(=O)Nc3ccc(F)cc32)c1C [Sunitinib] + C[C@]1(O)C[C@@H](c2nc(-c3ccc4ccc(-c5ccccc5)nc4c3)c3c(N)nccn32)C1 [Linsitinib] (partner 1 µM)
Outline: as §1

Sunitinib + Navitoclax = compound: CCN(CC)CCNC(=O)c1c(C)[nH]c(/C=C2\C(=O)Nc3ccc(F)cc32)c1C [Sunitinib] + CC1(C)CCC(c2ccc(Cl)cc2)=C(CN2CCN(c3ccc(C(=O)NS(=O)(=O)c4ccc(N[C@H](CCN5CCOCC5)CSc5ccccc5)c(S(=O)(=O)C(F)(F)F)c4)cc3)CC2)C1 [Navitoclax] (partner 0.5 µM)
Outline: as §1

Cell Line | relative viability (Sunitinib + Luminespib; first compound 0.02 µM) | relative viability (Sunitinib + Luminespib; first compound 0.06325 µM) | relative viability (Sunitinib + Luminespib; first compound 0.2 µM) | relative viability (Sunitinib + Luminespib; first compound 0.6325 µM) | relative viability (Sunitinib + Luminespib; first compound 2 µM) | relative viability (Sunitinib + Foretinib; first compound 0.02 µM) | relative viability (Sunitinib + Foretinib; first compound 0.06325 µM) | relative viability (Sunitinib + Foretinib; first compound 0.2 µM) | relative viability (Sunitinib + Foretinib; first compound 0.6325 µM) | relative viability (Sunitinib + Foretinib; first compound 2 µM) | relative viability (Sunitinib + Linsitinib; first compound 0.02 µM) | relative viability (Sunitinib + Linsitinib; first compound 0.06325 µM) | relative viability (Sunitinib + Linsitinib; first compound 0.2 µM) | relative viability (Sunitinib + Linsitinib; first compound 0.6325 µM) | relative viability (Sunitinib + Linsitinib; first compound 2 µM) | relative viability (Sunitinib + Navitoclax; first compound 0.02 µM) | relative viability (Sunitinib + Navitoclax; first compound 0.06325 µM) | relative viability (Sunitinib + Navitoclax; first compound 0.2 µM) | relative viability (Sunitinib + Navitoclax; first compound 0.6325 µM) | relative viability (Sunitinib + Navitoclax; first compound 2 µM)
NCI-H3122 | 0.0868 | 0.127 | 0.0866 | 0.0951 | 0.0797 | 0.904 | 0.963 | 1.04 | 0.976 | 0.97 | 1.02 | 1.07 | 1.04 | 0.992 | 1.05 | 0.975 | 1.04 | 1.07 | 1.04 | 0.983
PC-3 [JPC-3] | 0.681 | 0.672 | 0.755 | 0.762 | 0.692 | – | 1.05 | 1.12 | 1.02 | 1.01 | 0.978 | 0.975 | 0.951 | 0.987 | 0.881 | 0.843 | 0.906 | 0.846 | 0.879 | 0.797
PC-14 | 0.18 | 0.121 | 0.201 | 0.144 | 0.216 | 0.942 | 0.939 | 1.08 | 1 | 0.874 | – | 1.05 | 1.04 | 1.02 | 0.881 | 0.987 | 0.999 | 1.1 | 0.996 | 0.958
RERF-LC-KJ | 1.02 | 1.25 | 1.35 | 1.4 | 1.14 | 0.873 | 0.907 | 0.903 | 0.87 | 0.919 | 0.868 | 0.869 | 0.968 | 1.07 | 0.855 | 0.844 | 0.899 | 1.13 | 0.876 | 0.977
SK-LU-1 | 0.21 | 0.187 | 0.21 | 0.216 | 0.2 | – | 0.901 | 1.06 | 0.834 | 0.581 | 1.29 | 1.09 | 1.28 | – | – | 0.768 | 0.6 | 0.796 | – | 0.727
SK-MES-1 | 0.729 | 0.708 | 0.795 | – | 0.7 | 0.932 | 0.932 | 1.03 | 1.09 | 0.894 | 0.982 | 1.1 | 1.12 | 1.08 | 1.03 | 1.18 | 1.34 | 1.43 | 1.3 | 1.3
SW 1573 | 0.156 | 0.248 | 0.247 | 0.189 | 0.186 | 0.879 | 0.928 | 0.889 | 1.09 | 0.998 | 0.987 | 1 | 0.917 | 0.999 | – | 1.04 | 1.18 | 1.07 | 1.12 | 0.976
UMC-11 | 1.01 | 1.02 | 1.14 | 1.1 | 0.943 | 0.962 | 1.03 | 1.11 | 1.06 | 0.956 | 0.958 | 0.958 | 1.08 | 1.01 | 0.914 | 0.302 | 0.307 | 0.367 | 0.281 | 0.272

— the supplement of paper PMC10307832
